Measured values published in US20130079345A1, “[…] ACTIVE DISUBSTITUTED TRIAZINE DERIVATIVES” (BAYER INTELLECTUAL PROPERTY GMBH, priority 2010, published 2013).

Legend:
[1] = target: T1, CDK2/CyclinA (Homo sapiens, UniProt P24941); test: LanthaScreen Eu Kinase Binding Assay, CDK2; conditions: tracer 236, read-out: Affinity (Kd) CDK2
T1 construct: purchased Proqinase
Description: (§1) This protocol describes how the LanthaScreen Eu Kinase Binding Assay was performed to determine dissociation constants (Kd) of compounds of general formula (I) and CDK/Cyclin complexes. The principle behind this assay is based upon the binding and displacement of an Alexa Fluor 647-labeled tracer, which binds to the active site of kinases. Binding of the tracer to the kinase is detected using a Eu-labeled antibody. Simultaneous binding of both the tracer and antibody to the kinase gives rise to a FRET-signal. Binding of an inhibitor to the kinase competes for binding with the tracer, resulting in a loss of FRET.
(§2) The compounds of general formula (I) summarized in Table 1 were diluted from a 10 mM DMSO stock solution 1:10 in a total volume of 15 μL DMSO. This compound predilution was then serial diluted 1:3 over 8 steps in DMSO and briefly spun down. Each compound solution was now diluted 1:33.33 in kinase buffer (HEPES: 20 mM, pH: 8.0; MgCl2: 10 mM; DTT: 1 mM; Brij-35: 0.01%), mixed thoroughly and spun down. For every sample, 5 μL of the diluted compound were mixed with 5 μL tracer working solution (e.g. 60 nM tracer 236 in kinase buffer for CDK2/Cyclin A) and 5 μL CDK/Cyclin/Anti-GST-AB-working solution (e.g. 15 nM CDK2/Cyclin A, 1:250 dilution of Anti-GST-AB in kinase buffer) in a well of a small volume 384 well plate (Corning Incorporated, Corning, N.Y., USA; order no. 3673). […] For positive controls, in each well 5 μL of DMSO working solution (3% DMSO diluted in kinase buffer) was mixed with 5 μL CDK/Cyclin/Anti-GST-AB-working solution: (e.g. 15 nM CDK2/Cyclin A, 1:250 dilution of Anti-GST-AB in kinase buffer) and 5 μL Tracer working solution (e.g. 60 nM Tracer 236 in kinase buffer for CDK2/Cyclin A). Positive and negative controls were calculated from at least 8 different sample wells. The 384 well plates were mixed in a Teleshaker plate mixer (Beckman Coulter, Brea, Calif., USA) at 2000 rpm for 40 sec, and incubated for 1 h at room temperature before reading. The FRET signal was measured at 340 nm excitation, 665 nm and 615 nm emission (for the kinase tracer and LanthaScreen Eu-AB, respectively) with an Envision spectrophotometer (Perkin Elmer, Waltham, Mass., USA) with 50 μs delay and 300 μs integration time. Kd values were determined from the sigmoidal dose response curves with the software Quattro Workflow (Quattro GmbH, Munich, Germany).

[2] = target: T2, CDK9/Cyclin K (Homo sapiens, UniProt P50750); test: LanthaScreen Eu Kinase Binding Assay, CDK9/Cyclin K; conditions: tracer 236, read-out: Affinity (Kd) CDK9/Cyclin K
T2 construct: purchased Invitrogen
Description: as §1, §2

[3] = target: T3, CDK9/Cyclin T1 (Homo sapiens, UniProt P50750); test: LanthaScreen Eu Kinase Binding Assay, CDK9/Cyclin T1; conditions: tracer 236, read-out: Affinity (Kd) CDK9/Cyclin T1
T3 construct: purchased Invitrogen
Description: as §1, §2

[4] = target: T4, CDK7/CyclinH/Mat1 (Homo sapiens, UniProt P50613); test: LanthaScreen Eu Kinase Binding Assay, CDK7; conditions: tracer 236, read-out: Affinity (Kd) CDK7
T4 construct: purchased Carna Biosciences
Description: as §1, §2

T4 sequence (P50613 whole entry): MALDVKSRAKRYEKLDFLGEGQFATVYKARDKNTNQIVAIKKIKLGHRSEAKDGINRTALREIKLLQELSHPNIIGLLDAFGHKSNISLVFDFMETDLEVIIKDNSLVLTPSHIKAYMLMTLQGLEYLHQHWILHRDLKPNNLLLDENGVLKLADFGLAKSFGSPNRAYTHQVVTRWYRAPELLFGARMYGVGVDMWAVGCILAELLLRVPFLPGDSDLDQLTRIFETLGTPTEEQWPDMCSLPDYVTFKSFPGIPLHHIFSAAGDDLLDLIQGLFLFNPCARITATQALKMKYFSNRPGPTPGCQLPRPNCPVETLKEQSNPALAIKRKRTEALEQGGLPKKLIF
T4 sequence (P51946 whole entry partner): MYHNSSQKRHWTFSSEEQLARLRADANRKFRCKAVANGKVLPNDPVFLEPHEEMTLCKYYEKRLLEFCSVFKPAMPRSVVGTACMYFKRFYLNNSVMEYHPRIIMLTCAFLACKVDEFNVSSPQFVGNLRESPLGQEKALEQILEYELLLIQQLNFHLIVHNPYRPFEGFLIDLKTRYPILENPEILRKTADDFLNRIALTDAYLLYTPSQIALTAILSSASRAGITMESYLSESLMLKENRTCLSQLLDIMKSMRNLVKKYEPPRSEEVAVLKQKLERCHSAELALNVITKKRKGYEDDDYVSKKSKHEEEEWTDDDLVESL
T4 sequence (P51948 whole entry partner): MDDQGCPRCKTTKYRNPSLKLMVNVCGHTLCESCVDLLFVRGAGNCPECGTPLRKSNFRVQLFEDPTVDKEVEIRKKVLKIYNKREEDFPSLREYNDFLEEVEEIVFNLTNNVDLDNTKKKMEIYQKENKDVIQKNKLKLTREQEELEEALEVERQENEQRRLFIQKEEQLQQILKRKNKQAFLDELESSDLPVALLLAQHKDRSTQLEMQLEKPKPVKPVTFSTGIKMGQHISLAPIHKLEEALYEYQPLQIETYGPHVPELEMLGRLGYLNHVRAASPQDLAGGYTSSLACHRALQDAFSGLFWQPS
T2 sequence (P50750 whole entry): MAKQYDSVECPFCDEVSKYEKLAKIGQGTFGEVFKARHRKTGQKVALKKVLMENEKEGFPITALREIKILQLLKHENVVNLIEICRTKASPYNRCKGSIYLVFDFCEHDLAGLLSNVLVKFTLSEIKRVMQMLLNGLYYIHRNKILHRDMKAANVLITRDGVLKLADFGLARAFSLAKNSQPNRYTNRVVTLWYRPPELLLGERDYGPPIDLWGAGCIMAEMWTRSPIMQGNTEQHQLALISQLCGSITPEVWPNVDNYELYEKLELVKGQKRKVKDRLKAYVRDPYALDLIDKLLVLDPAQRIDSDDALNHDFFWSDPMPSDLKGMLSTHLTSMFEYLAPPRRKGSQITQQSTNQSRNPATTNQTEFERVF
T2 sequence (O75909 whole entry partner): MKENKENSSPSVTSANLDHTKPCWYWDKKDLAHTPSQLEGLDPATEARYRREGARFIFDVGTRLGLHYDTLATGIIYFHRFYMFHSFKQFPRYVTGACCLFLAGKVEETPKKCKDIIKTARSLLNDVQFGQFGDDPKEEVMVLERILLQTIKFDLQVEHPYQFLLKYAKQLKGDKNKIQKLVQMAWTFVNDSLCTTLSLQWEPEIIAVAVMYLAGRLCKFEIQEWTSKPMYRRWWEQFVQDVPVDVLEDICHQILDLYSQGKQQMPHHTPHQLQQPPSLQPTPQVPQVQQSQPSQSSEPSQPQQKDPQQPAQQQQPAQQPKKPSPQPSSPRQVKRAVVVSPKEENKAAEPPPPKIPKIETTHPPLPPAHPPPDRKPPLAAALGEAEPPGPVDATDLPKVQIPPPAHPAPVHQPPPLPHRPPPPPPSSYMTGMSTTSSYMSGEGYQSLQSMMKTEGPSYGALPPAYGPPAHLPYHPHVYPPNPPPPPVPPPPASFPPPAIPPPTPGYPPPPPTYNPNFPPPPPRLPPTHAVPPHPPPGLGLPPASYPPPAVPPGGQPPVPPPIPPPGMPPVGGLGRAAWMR
T3 sequence (P50750 whole entry): as the sequence (P50750 whole entry) above
T3 sequence (O60563 whole entry partner): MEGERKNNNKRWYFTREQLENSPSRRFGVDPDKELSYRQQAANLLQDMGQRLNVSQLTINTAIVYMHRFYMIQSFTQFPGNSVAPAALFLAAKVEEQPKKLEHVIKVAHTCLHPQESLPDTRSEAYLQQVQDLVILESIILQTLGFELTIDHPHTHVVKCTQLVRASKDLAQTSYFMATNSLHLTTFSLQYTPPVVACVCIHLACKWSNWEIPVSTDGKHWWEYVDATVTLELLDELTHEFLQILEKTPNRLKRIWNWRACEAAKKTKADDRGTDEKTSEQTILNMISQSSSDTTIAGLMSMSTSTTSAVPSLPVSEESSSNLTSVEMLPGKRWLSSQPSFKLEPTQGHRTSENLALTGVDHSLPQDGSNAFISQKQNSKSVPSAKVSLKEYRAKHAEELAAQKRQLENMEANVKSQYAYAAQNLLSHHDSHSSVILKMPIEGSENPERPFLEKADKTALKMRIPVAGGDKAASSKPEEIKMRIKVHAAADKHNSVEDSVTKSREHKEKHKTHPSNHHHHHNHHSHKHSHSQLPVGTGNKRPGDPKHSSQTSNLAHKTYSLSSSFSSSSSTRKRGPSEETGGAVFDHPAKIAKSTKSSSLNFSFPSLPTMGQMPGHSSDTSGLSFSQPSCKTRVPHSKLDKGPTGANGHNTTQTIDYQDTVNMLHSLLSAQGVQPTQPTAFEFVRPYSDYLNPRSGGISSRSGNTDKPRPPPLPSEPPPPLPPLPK

Row | Kd [1] | Kd [2] | Kd [3] | Kd [4] | Structure (SMILES)
1 | > 10000 nM | 87.2 nM | 105 nM | > 10000 nM | CCOC(=O)N=S(C)(=O)c1cccc(Nc2ncnc(-c3ccccc3OC)n2)c1 (racemic) [Compound G1, rac-S-[3-((4-(2-Methoxyphenyl)-1,3,5-triazin-2-yl)amino)phenyl]-N-ethoxycarbonyl-S-methyl-sulfoximide]
2 |  | 286 nM | 835 nM | > 10000 nM | COc1c(F)cc(F)cc1-c1ncnc(Nc2cccc(CS(N)(=O)=O)c2)n1 [Compound B5, 3-[(4-(3,5-Difluoro-2-methoxyphenyl)-1,3,5-triazin-2-yl)amino]benzenemethanesulfonamide]
3 |  | 709 nM | 1230 nM | > 10000 nM | COc1cc(C(F)(F)F)ccc1-c1ncnc(Nc2cccc(CS(N)(=O)=O)c2)n1 [Compound B8, 3-[(4-(2-Methoxy-4-trifluoromethyl-phenyl)-1,3,5-triazin-2-yl)amino]benzenemethanesulfonamide]
4 |  | 1590 nM | 398 nM | > 10000 nM | COc1ccc(C(F)(F)F)cc1-c1ncnc(Nc2cccc(CS(N)(=O)=O)c2)n1 [Compound B9, 3-[(4-(2-Methoxy-5-trifluoromethyl-phenyl)-1,3,5-triazin-2-yl)amino]benzenemethanesulfonamide]
5 |  | 110 nM | 309 nM | > 10000 nM | COc1ccc(CO)cc1-c1ncnc(Nc2cccc(CS(N)(=O)=O)c2)n1 [Compound B10, 3-[(4-(5-Hydroxymethyl-2-methoxyphenyl)-1,3,5-triazin-2-yl)amino]benzenemethanesulfonamide]
6 |  | 373 nM | 425 nM |  | NS(=O)(=O)Cc1cccc(Nc2ncnc(-c3ccccc3CNC3CC3)n2)c1 [Compound B22, 3-[(4-(2-(Cyclopropylamino-methyl)phenyl)-1,3,5-triazin-2-yl)amino]benzenemethanesulfonamide]
7 |  | 1110 nM | 907 nM | > 10000 nM | COCc1ccccc1-c1ncnc(Nc2cccc(CS(N)(=O)=O)c2)n1 [Compound B24, 3-[(4-(2-(Methoxymethyl)phenyl)-1,3,5-triazin-2-yl)amino]benzenemethanesulfonamide]
8 | 1100 nM | 39.7 nM | 131 nM | 13400 nM | COc1ccccc1-c1ncnc(Nc2ccc3c(c2)N(S(N)(=O)=O)CC3)n1 [Compound F1, 6-[(4-(2-Methoxyphenyl)-1,3,5-triazin-2-yl)amino]-2,3-dihydro-1H-indole-1-sulfonamide]
9 | 1450 nM | 71.2 nM | 146 nM | > 30000 nM | COc1ccccc1-c1ncnc(Nc2cccc(NC(C)=O)c2)n1 [Compound M1, N-[3-((4-(2-Methoxyphenyl)-1,3,5-triazin-2-yl)amino)phenyl]acetamide]
10 |  | 5980 nM | 5410 nM | > 30000 nM | CNCc1ccc(OC)c(-c2ncnc(Nc3cccc(CS(N)(=O)=O)c3)n2)c1 [Compound O1, 3-[(4-(2-Methoxy-5-(methylamino-methyl)phenyl)-1,3,5-triazin-2-yl)amino]benzenemethanesulfonamide]
11 | 2090 nM | 5 nM | 12.9 nM | > 10000 nM | COc1cc(F)ccc1-c1ncnc(Nc2cccc(CS(=O)(=O)NCCCCNC(=O)OC(C)(C)C)c2)n1 [Compound Q1, tert-Butyl [4-((3-((4-(4-Fluoro-2-methoxyphenyl)-1,3,5-triazin-2-yl)amino)phenyl)methylsulfonamido)butyl]carbamate]
12 | 2920 nM | 5 nM | 5 nM | > 10000 nM | COc1cc(F)ccc1-c1ncnc(Nc2cccc(CS(=O)(=O)NCCCCN)c2)n1 [Compound R1, N-(4-Aminobutyl)-1-[3-((4-(4-fluoro-2-methoxyphenyl)-1,3,5-triazin-2-yl)amino)phenyl]methanesulfonamide]

Row | Structure (SMILES) | Kd [1] | Kd [2] | Kd [3] | Kd [4]
13 | CC(C)(C)OC(=O)NCCCCOc1ccccc1-c1ncnc(Nc2cccc(CS(N)(=O)=O)c2)n1 [Compound B17, 3-[(4-(2-(4-(tert-Butoxycarbonylamino)butoxy)phenyl)-1,3,5-triazin-2-yl)amino]benzenemethanesulfonamide] | 2850 nM | 6.4 nM | 15 nM | 12800 nM
14 | NCCCCOc1ccccc1-c1ncnc(Nc2cccc(CS(N)(=O)=O)c2)n1 [Compound I1, 3-[(4-(2-(4-Aminobutoxy)phenyl)-1,3,5-triazin-2-yl)amino]benzenemethanesulfonamide] |  | 52 nM | 101 nM | > 30000 nM
